Test results published in US20150152070A1, “METHODS OF PEST CONTROL IN SOYBEAN” (Syngenta Participations AG, priority 2012, published 2015).

System: Euschistus heros (Neotropical Brown Stink Bug)
Assay: Euschistus heros (Neotropical Brown Stink Bug) contact/feeding activity on sprayed soybean plants
Type: in vivo
Conditions: comparative example, mortality 5 days after infestation
Description: Euschistus heros (Neotropical Brown Stink Bug) (Contact/Feeding Activity)
2 week old soybean plants are sprayed in a turn table spray chamber with the diluted spray solutions. After drying, 2 soybean seeds are added and plants are infested with 10 N-2 nymphs of the neotropical brown stink bug Euschistus heros in plastic test boxes. Boxes are incubated in a climate chamber at 25° C. and 60% RH. Evaluation is done 5 days after infestation on mortality.

Compound	Control/% (application rate 3.0 ppm)	Control/% (application rate 12.5 ppm)	Control/% (application rate 50 ppm)
O=C(CC(F)(F)F)NC1CCc2cc(C3=NOC(c4cc(Cl)cc(Cl)c4)(C(F)(F)F)C3)ccc21 (stereo not drawn) [Compound of the invention]	75%	100%	100%
O=C(NCC(F)(F)F)N1CCc2cc(C3=NOC(c4cc(Cl)cc(Cl)c4)(C(F)(F)F)C3)ccc21 (stereo not drawn) [Reference compound]	0%	0%	5%
